Measurements reported in patent US6426355B1, “Heterocyclic carboxamide-containing thiourea inhibitors of herpes viruses containing phenylenediamine group” (American Home Products, priority 1998, dated 2002).
Values after ≈ are worked out from the molar mass of the structure shown.

Key:
HSV-1 = test: HSV Antiviral (ELISA) assay; type: cell-based; details: for IC50 (ug/ml) HSV: HSV-1 in Vero cells; for IC50: Human alphaherpesvirus 1, HSV-1 in Vero cells, read-out: IC50 (ug/ml) HSV
Procedure: Vero cells (ATCC #CCL-81) are plated on 96-well tissue culture plates at 3.5×10^4 cells per 100 μl tissue culture DMEM (Dulbecco's modified Eagle media) supplemented with 2% fetal bovine serum (FBS) in each well. After overnight incubation @ 37° C. (in 5% CO2) and 30 minutes prior to infection with HSV-1 (multiplicity of infection equal to 0.006), cells are either untreated, or treated with test compound (multiple concentrations) or reference standard drug control. After approximately 24 hours post-infection incubation @ 37° C. (in 5% CO2), cells are fixed for ELISA assay. The primary antibody is murine anti-HSV glycoprotein D monoclonal primary antibody and the secondary antibody is goat anti-mouse IgG linked to β-galactosidase. Thus the extent of viral replication is determined by assessing β-galactosidase activity by quantifying the generation of the 4-methyl umbelliferone fluorescent cleavage product after addition of the methyl umbelliferyl-β-D-galactoside (Sigma #M1633) substrate on a microfluorimeter (365 nm for excitation and 450 nm for emission). Antiviral activity (IC50) of the test compound is determined by comparing the flourescence obtained in absence of compound to that obtained in the presence of compound.

[1] = test system: HCMV recombinant mutant virus (RV145); test: HCMV microtiter plate assay (beta-glucuronidase reporter); type: cell-based, Human Cytomegalovirus; details: for IC50 (ug/ml) HCMV: HCMV in human foreskin fibroblasts; for IC50: Human betaherpesvirus 5, Fibroblast, read-out: IC50 (ug/ml) HCMV
How it was run: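 Replication was read out as virus-encoded β-glucuronidase activity, measured with a chromogenic or fluorogenic glucuronide substrate in cell lysates at 96 h post-infection. Infection of human foreskin fibroblasts with RV145 took place with compound present. IC50 was derived from a range of inhibitor amounts.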

VZV strain Ellen = test: VZV Antiviral (ELISA) assay; type: cell-based; details: for IC50 (ug/ml) VZV / % inhibition 10 ug/ml VZV: VZV strain Ellen in HFF cells; for % inhibition 10 ug/ml VZV: at 10 ug/ml; for inhibition at 10 µg/mL: Human alphaherpesvirus 3, read-out: % inhibition 10 ug/ml VZV, at 10 ug/ml, VZV strain Ellen in HFF cells; for IC50: Human alphaherpesvirus 3, VZV strain Ellen in HFF cells, read-out: IC50 (ug/ml) VZV
Procedure: For the generation of stock VZV to be used in the assay, VZV strain Ellen (ATCC #VR-1367) is used to infect human foreskin fibroblast (HFF) cells at low multiplicity (less than 0.1) and incubated overnight at 37° C. in 5% CO2. After the overnight incubation, the mixture of uninfected and VZV-infected HFF infected cells are then harvested and added to each well of 96-well plates (3.5×10^4 cells in 100 μl DMEM supplemented with 2% FBS) which contain test compound or the reference standard drug control (in 100 μl DMEM supplemented with 2% FBS per well). These cells are incubated for three days at 37° C. in 5% CO2, then fixed for ELISA assay. The primary antibody is murine anti-VZV glycoprotein II monoclonal antibody (Applied Biosystems, Inc. #13-145-100) and the secondary antibody is goat anti-mouse IgG linked to β-galactosidase. Thus the extent of viral replication is determined by assessing β-galactosidase activity by quantifying the generation of the 4-methyl umbelliferone fluorescent cleavage product after addition of the methyl umbelliferyl-β-D-galactoside (Sigma #M1633) substrate on a microfluorimeter (365 nm for excitation and 450 nm for emission). Antiviral activity (IC50) of the test compound is determined by comparing the flourescence obtained in absence of compound to that obtained in the presence of compound.

Compound	IC50 (ug/ml) HSV (HSV-1) [µg/mL]	IC50 (ug/ml) HCMV [1] [µg/mL]	also measured
CN(C)c1cc(Cl)cc(NC(=S)Nc2ccc(NC(=O)c3csnn3)cc2)c1 [Example 522]	>10	0.025 (≈ 0.0577 µM)	IC50 (ug/ml) VZV (VZV strain Ellen): >10 µg/mL; % inhibition 10 ug/ml VZV (VZV strain Ellen): 32%
O=C(Nc1ccc(NC(=S)Nc2ccc(C(F)(F)F)c(Cl)c2)cc1)c1ccccc1F [Example 961, N-{4-[3-(3-Chloro-4-trifluoromethyl-phenyl)-thioureido]-phenyl} -2-fluoro-benzamide]	–	–	IC50 (HSV-1): > 10 µg/mL; IC50 [1]: 0.006 µg/mL (≈ 0.0128 µM); inhibition at 10 µg/mL (VZV strain Ellen): 20%
Cc1cc(NC(=S)NC(C)c2ccc(F)cc2)ccc1NC(=O)c1cc2ccccc2cn1 (centres unmarked) [Example 1126, Isoquinoline-3-carboxylic acid (4-{3-[1-(4-fluoro-phenyl)-ethyl]-thioureido}-2-methyl-phenyl)-amide]	–	–	IC50 (HSV-1): > 10 µg/mL; IC50 [1]: 5.8 µg/mL (≈ 12.6 µM); IC50 (VZV strain Ellen): 0.7 µg/mL (≈ 1.53 µM)
CN1CCC(N(C)c2ccc(NC(=S)Nc3ccc(NC(=O)c4ccccn4)cc3)cc2Cl)C1 (centres unmarked) [Example 354]	0.8 (≈ 1.62 µM)	2 (≈ 4.04 µM)	IC50 (ug/ml) VZV (VZV strain Ellen): 7 µg/mL (≈ 14.1 µM); % inhibition 10 ug/ml VZV (VZV strain Ellen): 75%
Nc1cc(Cl)cc(NC(=S)Nc2ccc(NC(=O)c3csnn3)cc2)c1 [Example 466]	>10	0.011 (≈ 0.0272 µM)	IC50 (ug/ml) VZV (VZV strain Ellen): >10 µg/mL; % inhibition 10 ug/ml VZV (VZV strain Ellen): 93%
O=C(Nc1ccc(NC(=S)Nc2cc(Br)cc(C(F)(F)F)c2)cc1)c1csnn1 [Example 532]	>10	0.009 (≈ 0.0179 µM)	IC50 (ug/ml) VZV (VZV strain Ellen): 6 µg/mL (≈ 11.9 µM)
CC(O)c1ccc(NC(=S)Nc2ccc(NC(=O)c3ccco3)cc2)cc1Cl (centres unmarked) [Example 917, Furan-2-carboxylic acid (4-{3-[3-chloro-4-(1-hydroxy-ethyl)-phenyl]-thioureido}-phenyl)-amide]	–	–	IC50 (HSV-1): 10 µg/mL (≈ 24 µM); IC50 [1]: 0.2 µg/mL (≈ 0.481 µM); IC50 (VZV strain Ellen): > 10 µg/mL
O=C(Nc1ccc(NC(=S)NCc2ccc(N3CCCCC3)c(C(F)(F)F)c2)cc1)c1csnn1 [Example 601]	>10	0.0011 (≈ 0.00211 µM)	IC50 (ug/ml) VZV (VZV strain Ellen): >10 µg/mL
COc1cc(OC)c(NC(=S)Nc2ccc(NC(=O)c3cccnc3)cc2)cc1Cl [Example 160]	2.5 (≈ 5.64 µM)	>10	IC50 (ug/ml) VZV (VZV strain Ellen): >10 µg/mL; % inhibition 10 ug/ml VZV (VZV strain Ellen): 27%
CC(C)c1nc(C(=O)Nc2ccc(NC(=S)Nc3ccc(Cl)c(Cl)c3)cc2)cs1 [Example 1132, 2-Isopropyl-thiazole-4-carboxylic acid {4-[3-(3,4-dichloro-phenyl)-thioureido]-phenyl}-amide]	–	–	IC50 (HSV-1): 2.6 µg/mL (≈ 5.59 µM); IC50 [1]: 1.2 µg/mL (≈ 2.58 µM); IC50 (VZV strain Ellen): 3.9 µg/mL (≈ 8.38 µM)
N#Cc1cccc(NC(=S)Nc2ccc(NC(=O)c3csnn3)cc2)c1 [Example 453]	>10	0.07 (≈ 0.184 µM)	IC50 (ug/ml) VZV (VZV strain Ellen): 3 µg/mL (≈ 7.89 µM)
O=C(Nc1ccc(NC(=S)Nc2cccc(Cl)c2Cl)cc1)c1csnn1 [Example 979, [1,2,3]Thiadiazole-4-carboxylic acid {4-[3-(2,3-dichloro-phenyl)-thioureido]-phenyl} -amide]	–	–	IC50 (HSV-1): 8 µg/mL (≈ 18.9 µM); IC50 [1]: 0.19 µg/mL (≈ 0.448 µM); IC50 (VZV strain Ellen): 12 µg/mL (≈ 28.3 µM); inhibition at 10 µg/mL (VZV strain Ellen): 88%
[1,2,3]Thiadiazole-4-carboxylic acid {4-[3-(3,4,5-chloro-4-isoxazol-5-yl-phenyl)-thioureido]-phenyl}-amide [Example 990]	8	0.011	IC50 (ug/ml) VZV (VZV strain Ellen): 4.5 µg/mL; % inhibition 10 ug/ml VZV (VZV strain Ellen): 99%
Cc1cc(CCNC(=S)Nc2ccc(NC(=O)c3csnn3)cc2)ccc1N(C)C [Example 692]	6 (≈ 13.6 µM)	0.04 (≈ 0.0908 µM)	–
O=C(Nc1ccc(NC(=S)Nc2cc(Cl)cc(Cl)c2)cc1)c1cscn1 [Example 700]	>10	0.004 (≈ 0.00945 µM)	–
O=C(Nc1ccc(NC(=S)NCCOc2ccc(Cl)c(Cl)c2)cc1)c1csnn1 [Example 703]	>10	0.007 (≈ 0.0149 µM)	–
O=C(Nc1ccc(NC(=S)NCCc2ccccc2Cl)cc1)c1csnn1 [Example 683]	10 (≈ 23.9 µM)	0.02 (≈ 0.0479 µM)	–
O=C(Nc1ccc(NC(=S)NCCc2ccc(Cl)cc2Cl)cc1)c1csnn1 [Example 707]	>10	0.005 (≈ 0.0111 µM)	–

Compound	IC50 (ug/ml) HSV (HSV-1) [µg/mL]	IC50 (ug/ml) HCMV [1] [µg/mL]	also measured
O=C(Nc1ccc(NC(=S)NCc2ccc(Cl)c(Cl)c2)cc1)c1cscn1 [Example 745]	9 (≈ 20.6 µM)	0.0025 (≈ 0.00572 µM)	–
O=C(Nc1ccc(NC(=S)NCc2ccc(F)c(Cl)c2)cc1)c1csnn1 [Example 689]	7 (≈ 16.6 µM)	0.007 (≈ 0.0166 µM)	–
O=C(NCc1ccc(Cl)c(Cl)c1)Nc1ccc(NC(=O)c2csnn2)cc1 [Example 90, [1,2,3]Thiadiazole-4-carboxylic acid {4-[3-(3,4-dichloro-benzyl)-ureido]-phenyl}-amide]	–	–	IC50 (HSV-1): > 10 µg/mL; IC50 [1]: 0.07 µg/mL (≈ 0.166 µM)
O=C(Nc1ccc(NC(=S)NCCc2ccc(F)cc2C(F)(F)F)cc1)c1csnn1 [Example 769]	>10	0.04 (≈ 0.0852 µM)	–
CN(C)CCCc1cc(NC(=S)Nc2ccc(NC(=O)c3csnn3)cc2)cc(C(F)(F)F)c1 [Example 654]	>10	0.07 (≈ 0.138 µM)	–
O=C(Nc1ccc(NC(=S)NCCOc2ccc(I)cc2)cc1)c1ccco1 [Example 698]	6 (≈ 11.8 µM)	0.04 (≈ 0.0788 µM)	–
O=C(Nc1ccc(NC(=S)NCCOc2cc(Cl)cc(Cl)c2)cc1)c1csnn1 [Example 688]	>10	0.006 (≈ 0.0128 µM)	–
O=C(Nc1ccc(NC(=S)NCc2cccc(I)c2)cc1)c1csnn1 [Example 663]	>10	0.01 (≈ 0.0202 µM)	–
O=C(Nc1ccc(NC(=S)NCCOc2cc(Cl)cc(Cl)c2)cc1)c1ccco1 [Example 665]	5 (≈ 11.1 µM)	0.02 (≈ 0.0444 µM)	–
O=C(Nc1ccc(NC(=S)NCCOc2cccc(Br)c2)cc1)c1csnn1 [Example 734]	>10	0.009 (≈ 0.0188 µM)	–
COc1ccc(CCNC(=S)Nc2ccc(NC(=O)c3csnn3)cc2)cc1 [Example 652]	>10	0.03 (≈ 0.0725 µM)	–
O=C(Nc1ccc(NC(=S)NCCc2c(Cl)cccc2Cl)cc1)c1csnn1 [Example 709]	>10	0.05 (≈ 0.111 µM)	–
COc1ccc(Br)cc1CCNC(=S)Nc1ccc(NC(=O)c2csnn2)cc1 [Example 682]	>10	0.006 (≈ 0.0122 µM)	–
O=C(Nc1ccc(NC(=S)NCCc2ccccc2F)cc1)c1ccco1 [Example 738]	>10	0.11 (≈ 0.287 µM)	–
O=C(Nc1ccc(NC(=S)NCc2ccc(F)c(F)c2)cc1)c1csnn1 [Example 676]	>10	0.013 (≈ 0.0321 µM)	–
O=C(Nc1ccc(NC(=S)Nc2ccccc2F)cc1)c1csnn1 [Example 748]	>10	0.28 (≈ 0.75 µM)	–
O=C(Nc1ccc(NC(=S)NCCc2ccc(F)c(F)c2)cc1)c1csnn1 [Example 716]	>10	0.01 (≈ 0.0238 µM)	–
